From patent publication US20130252935A1, “Monobactams” (PFIZER INC., priority 2010, published 2013)
≈ marks a conversion by molar mass, not a printed value.

Experiments:
Assay type in all cases: cell-based
[1] = tested on: Pseudomonas aeruginosa UC-12120; assay: minimum inhibitory concentration (MIC) testing according to CLSI guidelines, Pseudomonas aeruginosa; settings: UC-12120, wild-type, labeled as 1091-05, overnight incubation, lower of duplicate values; for MIC: Pseudomonas aeruginosa, UC12120, read-out: AB-MBT: Pseudomonas aeruginosa 1091-05: MIC (MstRcn)
Description: (§1) In order to assess the compounds biological activity, the in vitro anti-bacterial activity of selected compounds described in the Examples 1-69 was evaluated by minimum inhibitory concentration (MIC) testing according to Clinical and Laboratory Standards Institute (CLSI, formerly NCCLS) guidelines. See: Clinical and Laboratory Standards Institute. Methods for Dilution Antimicrobial Susceptibility Tests for Bacteria that Grow Aerobically; Approved Standard-Eighth Edition. CLSI document M7-A8 [ISBN 1-56238-689-1]. Clinical and Laboratory Standards Institute, 940 West Valley Road, Suite 1400, Wayne, Pa. 19087-1898 USA, 2006; also Clinical and Laboratory Standards Institute. Performance Standards for Antimicrobial Susceptibility Testing; Twentieth Informational Supplement. CLSI document M100-S20 [ISBN1-56238-716-2]. Clinical and Laboratory Standards Institute.
(§2) The MIC determination is a standard laboratory method for evaluating the antibacterial activity of a compound. The MIC represents the lowest drug concentration that inhibits visible growth of bacteria following overnight incubation. […] Typically, the drug concentration range is broken down into 2-fold increments (e.g. 0.06 μg/mL, 0.12 μg/mL. 0.25 μg/mL, 0.50 μg/mL, 1.0 μg/mL, etc.) and the various drug concentrations are all individually incubated overnight with approximately the same number of bacteria. The MIC is then determined by visually inspecting the drug effect at each concentration, and identifying the lowest drug concentration that has inhibited bacterial growth as compared to the drug free control. Typically, bacteria continue to grow at drug concentrations lower than the MIC and don't grow at concentrations at and above the MIC.
(§3) The MIC values described in Table 1 below were derived from assays wherein each test compound was evaluated in duplicate. In cases where the duplicate values varied by 0-2-fold, the lower of the two values was reported below. Generally speaking, if the duplicate values varied by more than 2-fold, the assay was considered non-valid and was repeated until the variation between duplicate runs was ≦2-fold. In line with the CLSI guidelines referred to above, both control organisms and reference compounds were utilized in each MIC assay to provide proper quality control. MIC values generated with these control organisms and reference compounds were required to fall within a defined range for the assay to be considered valid and be included herein. Those skilled in the art will recognize that MIC values can and do vary from experiment to experiment. Generally speaking, it should be recognized that MIC values often vary +/−2-fold from experiment to experiment. While a single MIC is reported for each compound and each microorganism, the reader should not conclude that each compound was only tested once. Several of the compounds were subjected to multiple tests. The data reported in Table 1 is reflective of the compounds relative activity and different MICs may have been generated on these occasions in light with the guidelines described above.
(§4) The following bacterial strains were used in these MIC determinations:
1) Pseudomonas aeruginosa UC-12120: Wild-type, labeled as 1091-05;

[2] = tested on: Klebsiella pneumoniae 1000-02; assay: minimum inhibitory concentration (MIC) testing according to CLSI guidelines, Klebsiella pneumoniae; settings: ciprofloxacin-resistant, ESBL-expressing clinical isolate 1000-02, overnight incubation, lower of duplicate values; for MIC: Klebsiella pneumoniae, read-out: AB-MBT: Klebsiella pneumoniae 1000-02: MIC (MstRcnt)
Description: as §1, §2, §3, §4
2) Klebsiella pneumoniae: Ciprofloxacin-resistant isolate, expresses extended-spectrum beta-lactamases (ESBL), clinical isolate, labeled as 1000-02;

[3] = tested on: Acinetobacter baumannii/haemolyticus AB-3167; assay: minimum inhibitory concentration (MIC) testing according to CLSI guidelines, Acinetobacter; settings: multidrug-resistant clinical isolate AB-3167, overnight incubation, lower of duplicate values; for MIC: Acinetobacter baumannii, read-out: AB-MBT: Acinetobacter baumanii AB-3167: MIC (MstRcnt)
Description: as §1, §2, §3, §4
3) Acinetobacter baumannii/haemolyticus: Multidrug-resistant clinical isolate, labeled as AB-3167.

| MIC [1] [µg/mL] | MIC [2] [µg/mL] | AB-MBT: Pseudomonas aeruginosa 1091-05: MIC (MstRcn) [1] [µg/mL] | AB-MBT: Klebsiella pneumoniae 1000-02: MIC (MstRcnt) [2] [µg/mL] | Structure (SMILES) | MIC [3] [µg/mL] | AB-MBT: Acinetobacter baumanii AB-3167: MIC (MstRcnt) [3] [µg/mL] |
| --- | --- | --- | --- | --- | --- | --- |
| 1 (≈ 1.53 µM) | 0.5 (≈ 0.764 µM) |  |  | CC(C)(O/N=C(\C(=O)N[C@@H]1C(=O)N(S(=O)(=O)O)[C@@H]1CNC(=O)c1cc(-c2cc(=O)c(O)c[nH]2)no1)c1csc(N)n1)C(=O)O [Example 14, 2-({[(1Z)-1-(2-amino-1,3-thiazol-4-yl)-2-({(2R,3S)-2-[({[3-(5-hydroxy-4-oxo-1,4-dihydropyridin-2-yl)isoxazol-5-yl]carbonyl}amino)methyl]-4-oxo-1-sulfoazetidin-3-yl}amino)-2-oxoethylidene]amino}oxy)-2-methylpropanoic acid] | 0.5 (≈ 0.764 µM) |  |
|  |  | 0.250 | 1.00 | CC(C)(O/N=C(\C(=O)N[C@@H]1C(=O)N(S(=O)(=O)[O-])[C@@H]1CNC(=O)c1cc(-c2cc(=O)c(O)cn2O)no1)c1csc(N)n1)C(=O)[O-].[Na+].[Na+] [Example 15, 2-({[(1Z)-1-(2-amino-1,3-thiazol-4-yl)-2-({(2R,3S)-2-[({[3-(1,5-dihydroxy-4-oxo-1,4-dihydropyridin-2-yl)isoxazol-5-yl]carbonyl}amino)methyl]-4-oxo-1-sulfoazetidin-3-yl}amino)-2-oxoethylidene]amino}oxy)-2-methylpropanoic acid, bis sodium salt] |  | 0.250 |
| 0.25 (≈ 0.373 µM) | 0.5 (≈ 0.746 µM) |  |  | CC(C)(O/N=C(\C(=O)N[C@@H]1C(=O)N(S(=O)(=O)O)[C@@H]1CNC(=O)c1cc(-c2cc(=O)c(O)cn2O)on1)c1csc(N)n1)C(=O)O [Example 16, 2-({[(1Z)-1-(2-amino-1,3-thiazol-4-yl)-2-({(2R,3S)-2-[({[5-(1,5-dihydroxy-4-oxo-1,4-dihydropyridin-2-yl)isoxazol-3-yl]carbonyl}amino)methyl]-4-oxo-1-sulfoazetidin-3-yl}amino)-2-oxoethylidene]amino}oxy)-2-methylpropanoic acid] | 1 (≈ 1.49 µM) |  |
|  |  | 0.125 | 1.00 | CC(C)(O/N=C(\C(=O)N[C@@H]1C(=O)N(S(=O)(=O)[O-])[C@@H]1CNC(=O)c1coc(-c2cc(=O)c(O)cn2O)n1)c1csc(N)n1)C(=O)[O-].[Na+].[Na+] [Example 17, 2-({[(1Z)-1-(2-amino-1,3-thiazol-4-yl)-2-({(2R,3S)-2-[({[2-(1,5-dihydroxy-4-oxo-1,4-dihydropyridin-2-yl)-1,3-oxazol-4-yl]carbonyl}amino)methyl]-4-oxo-1-sulfoazetidin-3-yl}amino)-2-oxoethylidene]amino}oxy)-2-methylpropanoic acid, bis sodium salt] |  | 1.00 |
|  |  | 0.250 | 0.500 | CC(C)(O/N=C(\C(=O)N[C@@H]1C(=O)N(S(=O)(=O)[O-])[C@@H]1CNC(=O)c1coc(-c2cc(=O)c(O)c[nH]2)n1)c1csc(N)n1)C(=O)[O-].[Na+].[Na+] [Example 18, 2-({[(1Z)-1-(2-amino-1,3-thiazol-4-yl)-2-({(2R,3S)-2-[({[2-(5-hydroxy-4-oxo-1,4-dihydropyridin-2-yl)-1,3-oxazol-4-yl]carbonyl}amino)methyl]-4-oxo-1-sulfoazetidin-3-yl}amino)-2-oxoethylidene]amino}oxy)-2-methylpropanoic acid, bis sodium salt] |  | 1.00 |
| 0.5 (≈ 0.744 µM) | 1 (≈ 1.49 µM) |  |  | CC(C)(O/N=C(\C(=O)N[C@@H]1C(=O)N(S(=O)(=O)O)[C@@H]1COC(=O)c1csc(-c2cc(=O)c(O)c[nH]2)n1)c1csc(N)n1)C(=O)O [Example 19, 2-({[(1Z)-1-(2-amino-1,3-thiazol-4-yl)-2-({(2S,3S)-2-[({[2-(5-hydroxy-4-oxo-1,4-dihydropyridin-2-yl)-1,3-thiazol-4-yl]carbonyl}oxy)methyl]-4-oxo-1-sulfoazetidin-3-yl}amino)-2-oxoethylidene]amino}oxy)-2-methylpropanoic acid] | 1 (≈ 1.49 µM) |  |
